Converted amounts (≈) assume the structure as drawn. “Also recorded” adds a separate entry of the source.
Experiments:
PD-1/PD-L1 interaction = biological target: T1, PD-1/PD-L1 interaction (Homo sapiens, UniProt Q9NZQ7); experiment: HTRF-based PD-1/PD-L1 binding assay
T1 construct: purchased Cisbio 64ICP01PEG

hPD-L1 = hPD-L1 (Homo sapiens, UniProt Q9NZQ7); experiment: SPR binding affinity assay (Biacore T200)
Description: To provide definitive evidence of direct binding to PD-L1 with small-molecule inhibitors, an SPR-based binding assay was performed using Biacore T200 instrument, which facilitates measurement of the kinetic parameters of ligand–protein complex formation. In this determination, hPD-L1/Fc was loaded on a Series S Sensor Chip Protein A. A9 and A15, with similar bioactivities in HTRF assay, were gradually subjected to this assay, and their kinetic parameters and the binding affinities were determined with the aid of Biacore evaluation software.
SPR analysis was carried out according to the method described by a previous article. The kinetic analysis for the interaction of small molecules with hPD-L1 was performed on a Biacore T200 (GE Healthcare Bio-sciences, Uppsala, Sweden) using Series S Sensor Chip Protein A (GE Healthcare Bio-sciences, Uppsala, Sweden, catalog # 29139131-AA). Briefly, Fc-hPD-L1 (Acro Biosystems, Cambridge, MA, USA, catalog #PD1-H5258) was diluted using 1 × PBS-P^+ buffer (phosphate buffer 1×, GE Healthcare Bio-sciences, catalog # 28-9950-84, enriched with 0.05% surfactant P20) containing 5% DMSO (Sigma-Aldrich, St. Louis, MO, America, catalog # D4540) and captured as the ligand (i.e., the target of small molecules) on protein A chip surface following Biacore T200 build-in protocol for kinetic/affinity analysis at a concentration of 10 μg/mL. The contact time and flow rates were set as 120 s and 10 μL/min for the ligand capture. Each experiment was performed using a pair of flow cells, one with ligand captured and the other kept as reference. A concentration gradient of analytes was freshly prepared in 1× PBS-P^+ buffer with 5% DMSO with at least five concentrations, and the concentration range was optimized according to different analytes. Analytes could flow through both ligand-captured flow cells and reference flow cells at the same rate (30 μL/min) and contact time (90 s). Solvent correction was included to avoid the impact of DMSO on surface plasmon effect during binding analysis. Extra washing of the flow system using 50% DMSO in 1×PBS-P^+ buffer was allowed to control carry over effects. For the regeneration of surface after each cycle (one-time ligand capture and binding of analyte at a single concentration) was carried out using 10 mM glycine pH 1.5 (GE Healthcare Bio-sciences, Uppsala, Sweden, catalog #BR-1003-54) at a flow rate of 30 μL/min for 30 s. Kinetic analysis was performed at 25 °C. Maximum binding response (Rmax) and equilibrium dissociation […] (KD) values were calculated using Biacore T200 Evaluation software following the 1:1 binding model.

MDA-MB-231 cells = experiment: MTT non-specific cytotoxicity assay, MDA-MB-231; assay type: cell-based
Description: (§1) Considering that the toxicity of the compound might strongly interfere with the assay if the tested compounds could block PD-1/PD-L1 interaction to activate T cells for killing tumors, we examined their cell toxicities of MDA-MB-231 and Jurkat T cells in MTT assay. […] Furthermore, Jurkat T cells were used to simulate primary T cells for investigating the immune toxicity of the treated compounds with the regular concentrations within 48 h.
(§2) The MDA-MB-231 and Jurkat cell line was provided by the Chinese Academy of Sciences Cell Bank. The cytotoxicity of the test compounds was determined using the MTT assay. Briefly, MDA-MB-231 and Jurkat cells were incubated at 37 °C in a humidified 5% CO2 incubator for 24 h in 96-microwell plates. Then, 100 μL of culture medium containing the test compounds at different concentrations was added to each well and incubated at 37 °C for another 48 h. The MTT was added and incubated for another 4 h, and the optical density was detected with a microplate reader at 570 nm. The IC50 values were calculated according to the dose-dependent curves.

Jurkat T cells = experiment: MTT non-specific cytotoxicity assay, Jurkat; assay type: cell-based
Description: as §1, §2

Water solubility by HPLC = assay type: physicochemical; settings: aqueous buffer, thermodynamic from solid, pH 7.4, PBS
Description: The aqueous solubility was estimated by HPLC. The HPLC analysis was performed on a Shimadzu LC-20AT machine with a BDS Hypersil C18 column, and the column temperature was at 28 °C. Mobile phase B (100% MeOH) and mobile phase A (100% water) were used in a gradient elution program (0 min: 30% (B), 2 min: 50% (B), 8 min: 95% (B), 14 min: 95% (B), 18 min: 70% (B), 20 min: 30% (B)) with a flow rate of 1.0 mL/min at […]. Methanol was used to configure an accurate compounds concentration to calculate the standard curve. The excess test compound was dissolved in PBS (KH2PO4 0.24 g + KCl 0.2 g + NaCl 8 g + Na2HPO4·12H2O 3.58 g + 1 L water) and then analyzed by HPLC.

[1] = tested on: Hep3B/OS-8/hPD-L1 and CD3+ T cells co-culture; experiment: IFN-γ production in Hep3B/OS-8/hPD-L1 and CD3+ T cell co-culture assay

T1 sequence (Q9NZQ7 19-238 limits assumed): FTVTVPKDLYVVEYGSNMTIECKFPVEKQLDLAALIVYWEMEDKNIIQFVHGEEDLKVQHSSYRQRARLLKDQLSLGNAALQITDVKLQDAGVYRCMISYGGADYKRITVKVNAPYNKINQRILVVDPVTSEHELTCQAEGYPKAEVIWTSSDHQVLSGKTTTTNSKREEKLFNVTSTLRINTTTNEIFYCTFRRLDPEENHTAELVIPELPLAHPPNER
Chain of hPD-L1 (Q9NZQ7 19-238 limits assumed): as above

With `COc1nc(-c2cccc(-c3ccccc3F)c2C)ccc1CNCCC(N)=O` [Compound A9, 3-(((6-(2′-Fluoro-2-methyl-[1,1′-biphenyl]-3-yl)-2-methoxypyridin-3-yl)methyl)amino)propenamide] the “increase in activity as compared with A4” value (PD-1/PD-L1 interaction; HTRF IC50 ratio) was “more than 23 fold”, the IC50 (PD-1/PD-L1 interaction; HTRF, two independent experiments) was 0.93 nM and the LE (PD-1/PD-L1 interaction; LE = −1.35 logIC50/Nheavy atoms (HTRF IC50)) was 0.43. For the same molecule, the LE (hPD-L1; LE = -1.35log KD/Nheavy atoms (SPR KD)) was 0.40, the “KD compared with that of A15” value (hPD-L1; SPR KD ratio) was 5 fold and the kon (hPD-L1; SPR association rate, read-out: Ka (M-1s-1) / Kon) was 538000 M⁻¹ s⁻¹. For the same molecule, the koff (hPD-L1; SPR dissociation rate, read-out: Kd (s-1) / Koff) was 0.00196 s⁻¹, the Kd (hPD-L1; SPR, 25 °C, 1:1 binding model) was 3.64 nM and the EC50 (MDA-MB-231 cells; Homo sapiens, MDA-MB-231, 48 h, read-out: EC50 (μM)/MDA-MB-231 Toxicity) was 11.1 µM. The “direct killing of tumor cells” value (MDA-MB-231 cells; as shown in Table 3) was “do not directly kill tumor cells”, the EC50 (Jurkat T cells; Homo sapiens, Jurkat, MTT, 48 h, read-out: EC50 (μM)/Jurkat Toxicity) was 7.6 µM and the “immune toxicity in Jurkat T cells” value (Jurkat T cells; regular concentrations within 48 h) was “lower cell toxicity”. The solubility (Water solubility by HPLC) was 126 µg/mL (≈ 321 µM), the “IFN-γ production / release” value ([1]; 72 h co-culture, ELISA, dose response) was “promote the dose-dependent release of IFN-γ; also recorded: significantly promote the production of IFN-γ in a dose-dependent manner; also recorded: potently induces the release of IFN-γ” and the “promoting effect on IFN-γ production compared with BMS-202” value ([1]; A9 at 5 μM) was “significantly higher than that of BMS-202”. The “promoting effect on IFN-γ production compared with Keytruda” value ([1]; A9 at 5 μM vs Keytruda at 5 μg/mL) was “comparable promoting effect on production of INF-γ; also recorded: comparable to that of Keytruda at 5 μg/mL”.

— PMC8199613, “Discovery of Novel Small-Molecule Inhibitors of PD-1/PD-L1 Interaction via Structural Simplification Strategy” (Molecules, 2021)
